Read-outs that look alike come from different tables or passages of the source. Starred links: 1 amine or outer side, 2 acyl side, 3 side chain; linkers in the order of their positions; H or OH if unused. Positions of bridges follow the written chain, without caps; N, C: chain ends. Non-standard residues stand in square brackets, D forms with d. Residues, ends and D or L forms follow the SMILES beside them. ξ: configuration not given here. ξαMeNle(6-ylidene) = CC(CCCC=[*:3])(N[*:1])C(=O)[*:2]; X1 = CC(CCCCCCC=[*:3])(N[*:1])C(=O)[*:2]
Experiments:
[1] = system: U266DOX4, lymphoblast (myeloma), selected for resistance to Doxorubicin; format: cell-based
Procedure: U266DOX4, lymphoblast (myeloma), selected for resistance to Doxorubicin (Alvarez-Fernández et al. Clin Cancer Res. 2013 May 15; 19(10):2677-87).
All cell lines were cultured in incubator at 37° C. in RPMI-1640 (Sigma R8758) medium with 10% of fetal bovine serum inactivated (FBS) and 2 mM glutamine (Sigma G7513). During the amplification step cells were centrifuged and transferred into the culturing medium. Cells were counted in a Neubauer chamber after labelling with Tripan-Blue.
Cells were seeded at a density of 10000 cells/well in 100 μl of medium in 96 well plates. After 24 h, the compounds to be tested were added to calculate the dose/response curve at the starting concentration of 100 μM with serial dilutions (1:1). Controls are the untreated cells. Each experiment was performed in triplicate.
Cells were incubated with the peptidomimetic compound (S09) at the indicated concentrations during 24-72 h in incubator under CO2 atmosphere at 37° C. Then, cell viability was measured by means of MTT (3-(4,5-dimethylthiazol-2-yl)-2,5-diphenyltetrazolium bromide) assay. Stock solution of MTT (475989 Calbiochem) was 5 mg/ml in PBS. 1×.10 μl/well of MTT solution were added and the plate was incubated for 3-4 hr. The medium was discarded and 100 μl of extracting buffer (PBS 1×, 15% SDS, 50% […] N,N-Dimethylformamide, pH 4.7) were added to each well. Plates were incubated for 16 h at room temperature under orbital shaking. Absorbance at 570 nm was finally measured. As negative control (experiment noise) 3 wells were treated with 20 μl/well of a solution of SDS 10% in H2O.
Data analysis was performed calculating the percentage of cell viability normalized vs. the values of negative control, which was considered equal to 100%. The dose/response curve was fitted through the sigmoidal equation dose-response (variable slope) and the IC50 values were calculated as follow:
Y=Bottom+(Top−Bottom)/(1+10^{[(LogIC50−X)*HillSlope]},
U266DOX4, lymphoblast (myeloma), selected for resistance to Doxorubicin (Alvarez-Fernandez et al. Clin Cancer Res. 2013 May 15; 19(10):2677-87).
All cell lines were cultured in incubator at 37° C. in RPMI-1640 (Sigma R8758) medium with 10% of fetal bovine serum inactivated (FBS) and 2 mM glutamine (Sigma G7513).
Cells were seeded at a density of 10,000 cells/well in 100 μl of medium in 96 well plates. After 24 h, the compounds to be tested were added to calculate the dose/response curve at the starting concentration of 40 μM with serial dilutions (1:1). […]
Cells were incubated with the peptidomimetic compounds at the indicated concentrations during 24-72 h in incubator under CO2 atmosphere at 37° C. Then, cell viability was measured by means of MTT (3-(4,5-dimethylthiazol-2-yl)-2,5-diphenyltetrazolium bromide) assay. […] Absorbance at 570 nm was finally measured. […]

[2] = system: RAMOS, B lymphocyte (Burkitt's Lymphoma); assay: MTT viability assay, RAMOS; format: cell-based
Procedure: RAMOS, B lymphocyte (Burkitt's Lymphoma), ATCC: CRL-1596 […] During the amplification step and the assays adherent cells were rinsed with DPBS (Dulbecco's Phosphate Buffered Saline, Sigma D1283) three times and afterward treated for 5 minutes with trypsin ([…]) (Gibco-BRL, 15400054) in solution of DPBS at 37° C., and, once detached, transferred in the culturing medium. No-adherent cells were centrifuged and transferred in the culturing medium. Cells were counted in a Neubauer chamber after labelling with Tripan-Blue. […] Cells were seeded at a density of 10000 cells/well in 100 μl of medium in 96 well plates. […] Controls are the untreated cells. Each experiment was performed in triplicate. Cells were incubated with the compounds at the indicated concentrations during 24-72 h in incubator under CO2 atmosphere at 37° C. […] Stock solution of MTT (475989 Calbiochem) was 5 mg/ml in PBS. 1×.10 μl/well of MTT solution were added and the plate was incubated for 3-4 hr. […] Plates were incubated for 16 h at room temperature under orbital shaking. Absorbance at 570 nm was finally measured. […] The dose/response curve was fitted through the sigmoidal equation dose-response (variable slope) and the IC50 values were calculated as follow: Y=Bottom+(Top−Bottom)/(1+10^{[(LogIC50−X)*HillSlope]},

Structure (SMILES): CC[C@H](C)[C@H](NC(=O)[C@H](Cc1ccc(O)cc1)NC(=O)[C@H](C)NC(=O)C1(C)CCCC=CCCCCCCC(C)(NC(=O)[C@H](CCCCN)NC(=O)[C@@H]2CCCN2C(=O)[C@H](C)N)C(=O)N[C@@H](C(C)C)C(=O)N[C@@H]([C@@H](C)CC)C(=O)N[C@@H](CC(C)C)C(=O)N[C@@H](CCCCN)C(=O)N[C@@H](CCCCN)C(=O)N[C@@H](C)C(=O)N1)C(=O)N[C@@H](CC(C)C)C(=O)N[C@@H](CO)C(=O)O (stereo partly drawn) [S09, APKXVILKKAXAYILS—OH] (H-APK[X1]VILKKA[ξαMeNle(6-ylidene)]AYILS-OH; staple 4-11; N-terminus assumed)
- IC50 ([1]; U266DOX4 (resistant to Doxorubicin), MTT, 24-72 h, Table 7, read-out: IC50 values in μM for S09): 5 µM
- IC50 ([2]; Ramos, MTT, incubation 24-72 h, Table 3, read-out: IC50 values): ~28 µM
- IC50 ([2]; Ramos, same protocol as Example 2, Table 6, read-out: Compound (IC50)): ~28 µM

Structure (SMILES): CC[C@H](C)[C@H](NC(=O)[C@H](Cc1ccc(O)cc1)NC(=O)[C@H](C)NC(=O)C1(C)CCCC=CCCCCCCC(C)(NC(=O)[C@H](CCCCN)NC(=O)[C@@H]2CCCN2C(=O)[C@H](C)N)C(=O)N[C@@H](C(C)C)C(=O)N[C@@H]([C@@H](C)CC)C(=O)N[C@@H](Cc2ccccc2)C(=O)N[C@@H](CCCCN)C(=O)N[C@@H](CCCCN)C(=O)N[C@@H](C)C(=O)N1)C(=O)N[C@@H](CC(C)C)C(=O)N[C@@H](CO)C(=O)O (stereo partly drawn) [S14, APKXVIFKKAXAYILS—OH] (H-APK[X1]VIFKKA[ξαMeNle(6-ylidene)]AYILS-OH; staple 4-11; N-terminus assumed)
- IC50 ([1]; U266DOX4, 24 hr, Table 13, read-out: IC50 after 24 hr values): 15 µM
- IC50 ([1]; U266DOX4, 72 hr, Table 14, read-out: IC50 after 72 hr values): 15 µM
- IC50 [2]: 55 µM

Source: US20200261534A1, “NEW TREATMENTS OF MULTIPLE MYELOMA” (priority 2017, published 2020)
